Results taken from PubChem BioAssay (NCI).
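Values below derive from 48-hour exposures of cells grown in 96-well plates, with endpoints linearly interpolated between the two concentrations bracketing the appropriate inhibition level. TGI marks complete inhibition of growth.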

Tests used:
Assay in all cases: NCI tumour cell line growth inhibition, 48 h
[1] = system: 786-0 renal
[2] = system: A498 renal
[3] = system: A549 NSCLC
[4] = system: ACHN renal
[5] = system: BT-549 breast
[6] = system: CAKI-1 renal
[7] = system: CCRF-CEM leukemia
[8] = system: COLO 205 colon
[9] = system: DU-145 prostate
[10] = system: EKVX NSCLC
[11] = system: HCT-116 colon
[12] = system: HCT-15 colon
[13] = system: HL-60(TB) leukemia
[14] = system: HOP-62 NSCLC
[15] = system: HS 578T breast
[16] = system: HT29 colon
[17] = system: IGROV1 ovarian
[18] = system: K-562 leukemia
[19] = system: KM12 colon
[20] = system: LOX IMVI melanoma
[21] = system: M14 melanoma
[22] = system: MCF7 breast
[23] = system: MDA-MB-231 breast
[24] = system: MDA-MB-435
[25] = system: MDA-N
[26] = system: MOLT-4 leukemia
[27] = system: NCI-H226 lung
[28] = system: NCI-H23 lung
[29] = system: NCI-H460 lung
[30] = system: NCI-H522 lung
[31] = system: NCI/ADR-RES ovarian
[32] = system: OVCAR-3 ovarian
[33] = system: OVCAR-4 ovarian
[34] = system: OVCAR-5 ovarian
[35] = system: OVCAR-8 ovarian
[36] = system: PC-3 prostate
[37] = system: RPMI-8226 leukemia
[38] = system: SF-268 CNS
[39] = system: SF-295 CNS
[40] = system: SF-539 CNS
[41] = system: SK-MEL-2 melanoma
[42] = system: SK-MEL-28 melanoma
[43] = system: SK-MEL-5 melanoma
[44] = system: SK-OV-3 ovarian
[45] = system: SN12C renal
[46] = system: SNB-19 CNS
[47] = system: SNB-75 CNS
[48] = system: SW-620 colon
[49] = system: T-47D breast
[50] = system: TK-10 renal
[51] = system: U251 CNS
[52] = system: UACC-257 melanoma
[53] = system: UACC-62 melanoma

Measured: TGI

O=C(Nc1ccn(C2CC(O)C(CO)O2)c(=O)n1)c1ccccc1 (stereo not drawn)
> 100 µM: [1] | [2] | [3] | [4] | [5] | [6] | [7] | [8] | [9] | [10] | [11] | [12] | [13] | [14] | [15] | [16] | [17] | [18] | [19] | [20] | [21] | [22] | [23] | [24] | [25] | [26] | [27] | [28] | [29] | [30] | [31] | [32] | [33] | [34] | [35] | [36] | [37] | [38] | [39] | [40] | [41] | [42] | [43] | [44] | [45] | [46] | [47] | [48] | [49] | [50] | [51] | [52] | [53]
